Laboratory results as given in US11306122B2, “Compositions and methods of inhibiting the binding of plasma IgG autoantibodies to serotonin 2A receptor” (United States Government As Represented By The Department …, priority 2019, dated 2022).
Entries after “also recorded” stand apart in the source; their conditions may differ. Ends that are not written are not given here.

What was measured:
[1] = tested on: N2a neuroblastoma cells; assay: N2a cell survival with ZDF rat plasma protein G eluate; type: cell-based, mouse; conditions: 1 μM antagonist; 1 μg/mL (10 nM) eluate; 24 hours
Description: Plasma was applied to a Protein G affinity chromatography column (which binds most subclasses or rat IgG autoantibodies), washed extensively and eluted in low pH (2.7) buffer. The resulting eluate was incubated with N2a neuroblastoma cells at 37 degrees C. for 24 hours.

[2] = tested on: mouse N2A neuroblastoma cells; assay: Acute N2A neurite retraction induced by TBI patient 5-HT2A receptor autoantibodies; type: cell-based; conditions: for effect on TBI autoantibody-induced acute neurite retraction: M100907 250-500 nM, Y27632 10 μM, other concentrations as in Table 17; for % of autoantibody Neurite Retraction from TBI patients: 60 nM IgG of representative TBI patient
Description: Acute neurite retraction. Mouse N2A neuroblastoma cells were maintained in Dulbecco's minimal essential medium with 10% fetal calf serum. […] Neurite retraction represents average neurite length-shortening after five minutes exposure to TBI (5-HT2A receptor) autoantibodies (60-100 nM) in the presence or absence of various G-protein coupled receptor (GPCR) or signaling pathway antagonists.
A 60 nanomolar concentration of the IgG autoantibodies (e.g., 5-HT2A receptor autoantibodies) from a representative TBI patient was incubated with N2A cells in the presence or absence of the indicated concentration of the selective GPCR antagonist.
A 60 nanomolar concentration of 5-HT2A receptor autoantibodies from TBI patients was incubated with N2A cells in the presence or absence of the indicated concentration of Gq11/PLC-gamma/IP3R antagonist or RhoA/Rho kinase pathway inhibitor.
Neurovascular 5-hydroxytryptamine (serotonin) 2A receptor (5-HT2AR) autoantibodies were previously reported to function as long-acting agonists in diabetic angiopathy and subsets of major depression, Parkinson's disease or dementia. The 5-HT2A receptor is highly expressed in specific brain regions underlying cognition, perception and mood regulation. Long-lasting 5-HT2A receptor activation by circulating autoantibodies might contribute to pathophysiology via central and peripheral mechanisms. Since the risk or incidence of Parkinson's disease, depression and dementia increase following traumatic brain injury (TBI), circulating neurotoxic autoantibodies (e.g., 5HT2AR) were tested, characterized and compared with autoantibodies from TBI patients vs. diabetic subsets with or without neurodegenerative disorders. Plasma IgG autoantibodies (e.g., 5-HT2AR autoantibodies) were obtained by protein-A affinity chromatography in ten male TBI patients mean age 64 years old.

[3] = tested on: N2A cells; assay: N2A cell loss (MTT) induced by TBI patient autoantibodies; type: cell-based, mouse
Description: Cell survival was determined with MTT assay.
Mouse neuroblastoma cell loss. N2A cell loss was quantified using an MTT (3-(4,5-dimethylthiazol-2-yl)-2,5-diphenyltetrazolium bromide) tetrazolium reduction assay after overnight incubation with autoantibodies from TBI patients (Zimering M B, Endocrinol Diabetes Metab J. 2019 August; 3(4) pii: 118. Epub 2019 Aug. 14).

[4] = tested on: N2A mouse neuroblastoma cells; assay: Acute N2A neurite retraction induced by schizophrenia plasma autoantibodies; type: cell-based; conditions: for % AutoAB-induced neurite retraction: 20 nM Pt 1 schizophrenia AutoAB
Description: (§1) Methods: Plasma from five older adults with chronic schizophrenia and eight age-matched patients having another neuropsychiatric, immune or metabolic disorder was subjected to Protein-A affinity chromatography to obtain IgG autoantibodies. Mean neurite retraction (5 minutes) or cell survival (24 hours) was determined in mouse N2A neuroblastoma cells incubated with autoantibodies in the presence or absence of specific antagonists of the Gq/11/PLC/IP3R signaling pathway, Gi-coupled, beta-arrestin2-directed pathways, or LY379268.
Acute neurite retraction assay. Percent of basal neurite length in N2A cells expressing one or more proximally-located dendrite-like process was determined after interval exposure to test substances (Zimering M B, J Endocrinol Diabetes. 2018; 5(2): 10).
A twenty nanomolar concentration of protein-A eluate fraction of plasma from Pt 1 with schizophrenia was incubated with N2A cells in the presence or absence of the indicated concentration of each Gq/11, GPCR antagonist. Results are the mean+/−SD of two experiments.
A forty nanomolar concentration of plasma autoantibodies (AutoAB) from Pt 1 or Pt, schizophrenia, was incubated in the presence or absence of the indicated concentration of RhoA/Rho kinase (ROCK) inhibitor, or individual antagonists of the Gq11/PLC/IP3R signaling pathway. […]

[5] = tested on: N2A mouse neuroblastoma cells; assay: N2A cell survival (MTT) promoted by schizophrenia/psychosis plasma autoantibodies; type: cell-based; conditions: M100907 500 nM; LY379268 5 μM; pertussis toxin 100 ng/mL; LY294002 20 μM; 24 hours
Description: as §1
N2A cell survival. MTT assay was performed 24 hours after incubation with test substances (Zimering M B, J Endocrinol Diabetes. 2018; 5(2): 10).
Serotonin 2A receptor activation leads to f3-arrestin-2-mediated desensitization and receptor internalization. However, β-arrestin-2 can also couple with diverse signaling pathways leading to enhanced cell proliferation and/or survival promotion.

[6] = Observation of side effects and sedation in ZDF rats; type: in vivo, Zucker diabetic fatty (ZDF) rat
Description: Normally these rats will feed nearly continuously when given the opportunity. This sedating effect was reproducible following a second IP injection of 1 mg of the SEQ ID NO: 2 in each of the 3 ZDR rats. […] Serotonin plays a major role in wakefulness and arousal in the nervous system. It is possible that the administration of SEQ ID NO: 2 blocks the action of the neurotransmitter serotonin at multiple sites in the periphery and in the central nervous system, inducing sleep via antagonism of serotonin's role in wakefulness/arousal, independent of the pronounced blood pressure-lowering effect.

[7] = Blood glucose in ZDF rats; type: in vivo, Zucker diabetic fatty (ZDF) rat

Molecule | effect on accelerated neuroblastoma cell death induced by ZDF rat protein G eluate [1] | prevention of mean neurite retraction in TBI patient 5-HT2AR autoantibodies ([2]; M100907 200-670 nM, n=10 TBI patients, retraction alone 52±10%) | effect on TBI autoantibody-induced acute neurite retraction [2] | % of autoantibody Neurite Retraction from TBI patients ([2]; antagonist 250 nM) [%] | effect alone on N2A cell survival ([3]; 250 nM-500 nM, without autoantibodies) | effect on accelerated N2A cell death/loss by TBI autoantibodies ([3]; M100907 250 nM (eight of eight patients), prazosin 850 nM (n=5), one-fiftieth dilution, 24 hours) | effect on LY379268-potentiated SCZ autoantibody-induced neurite retraction ([4]; M100907 500 nM) | effect on schizophrenia autoantibody-induced neurite retraction ([4]; M100907 two-hundred nanomolar, Y27632 ten micromolar, Y254890 one micromolar) | % AutoAB-induced neurite retraction ([4]; antagonist 200 nM) [%] | effect on autoantibody-induced N2A pro-survival/proliferation (words) [5] | % of autoantibody Neurite Retraction from TBI patients ([2]; antagonist 400 nM) [%] | % AutoAB-induced neurite retraction ([4]; antagonist 500 nM) [%] | vomiting or other side effects during and for 15 days after administration ([6]; ZDF rats, alternate daily 2 mg/kg IP) | side effects eighteen days after injection ([6]; three ZDF rats, approximately 1 mg single intraperitoneal injection) | effect of repeated peptide injections on blood glucose concentration [7]
COc1cccc([C@H](O)C2CCN(CCc3ccc(F)cc3)CC2)c1OC [Peptide M100907] | significantly reduced; also recorded: significant protection | 89-91% | substantially prevented; also recorded: completely or nearly completed prevented | 0 | no significant effect | substantially prevented; also recorded: nearly completely prevented | significantly prevented | completely prevented | 0 ± 0 | significantly blocked |  |  |  |  | 
O=C(CCCN1CCC2(CC1)C(=O)NCN2c1ccccc1)c1ccc(F)cc1 [Spiperone] | significantly reduced; also recorded: significant protection |  | substantially blocked |  |  |  |  |  |  |  | 20 | 17 ± 6 |  |  | 
SCLLADDN [Peptide 2] |  |  |  |  |  |  |  |  |  |  |  |  | did not experience vomiting or any other side effects | no untoward side effects were observed | no evidence that the peptide injections caused a significant increase in blood glucose concentration
